# Assay results reported in PMC9681850, “Structural basis of synthetic agonist activation of the nuclear receptor REV-ERB” (Nature Communications, 2022).
# Values joined by “and” are separate entries in the source; they are usually repeats but may differ in a detail not shown here. Equal entries are not always repeated.
# Experiments:
# [1] = test system: Bmal1 expression in liver; test: Bmal1 expression in liver after i.p. administration; type: in vivo, C57Bl/6 J mice; details: mice, 50 mg/kg i.p., 12 h post administration, single animals
# [2] = tissue exposure following i.p. administration; type: in vivo, C57Bl/6 J mice; details: mice
# Protocol: To test the efficacy of STL1267 in vivo, we began by assessing tissue exposure following i.p. administration. We administered vehicle or 50 mg/kg of STL1267 via intraperitoneal injection to C57Bl/6 J mice. The mice were sacrificed at four subsequent time points over the next 12 h.
# All in vivo studies were performed using the ARRIVE guidelines and approved by the Washington University IACUC. C57Bl/6J mice (male; 6–8 weeks of age) maintained at 12:12 h light;dark, 22 °C, 40–60% humidity. Mice were injected IP with 50 mg/kg STL1267 (n = 3–4 per group) or vehicle (10% DMSO, 12% TWEEN80, PBS) (n = 3–4 per group). Mice were weighed immediately following the injection and were weighed again immediately after sacrifice. Mice were fasted started at the time of injection. For tissue collection, three STL1267-injected mice were sacrificed at 1 h post-injection, and three more were sacrificed at 3 h post-injection. At 8 h and 12 h post-injection, six mice from each treatment group were taken down and tissue was collected. The tissues collected at all four time points include plasma, white adipose tissue, brain, liver, and skeletal muscle (quadriceps). […] Analytes were extracted using protein precipitation techniques with acetonitrile and samples were then analyzed using a SCIEX Triple Quad 5500+ system – QTRAP ready linked to an ExionLC AD-HPLC system. […]
# [3] = test system: HepG2 cells; test: cell viability by crystal violet staining; type: cell-based, human; details: for cell viability (Fig 2a source data): crystal violet, normalized to DMSO, single replicates
# Protocol: Cellular viability was tested in two cell types, human hepatocarcinoma HepG2 cells and proliferating C2C12 mouse myoblast cells.
# Data are presented as mean ± SEM. Source data are available as a Source Data file.
# The human hepatocellular carcinoma cell line, HepG2 cells (ATCC HB-8065), were cultured in 10% FBS 1% L-Glu MEM at 37 °C in a humidified atmosphere of 5% CO2. Prior to RNA extraction cells were treated with either DMSO or REV-ERB agonist for 24 h. The C2C12 proliferating mouse myoblast cells (ATCC, CRL-1772) were cultured in 10% FBS DMEM at 37 °C in a humidified atmosphere of 5% CO2. Prior to RNA extraction cells were treated with either DMSO or REV-ERB agonist for 24 h. […]
# […] Media was removed, and cells were incubated with 0.5% crystal violet solution for 20 min at room temperature with mild agitation. Cells were washed four times with tap water before being air drying overnight. Cells were incubated in methanol for 20 min with mild agitation. Absorbance was read at 570 nm, and readings were normalized to vehicle (DMSO) treated cells.
# [4] = test system: REV-ERBα; parameters: method as in ref 21 = [21]; 21. Bourotte, et al. Derivatives of 6-substituted triazolopyridazines as Rev-Erb agonists. (ed. States, U.) (United States, 2012).; details: enhancement of REV-ERBα/NCoR interaction, biochemical or cell-based assays; cited from earlier work
# [5] = biological target: CAR (Homo sapiens, UniProt Q14994); test: CAR assay; type: cell-based
# CAR, sequence (Q14994 whole entry): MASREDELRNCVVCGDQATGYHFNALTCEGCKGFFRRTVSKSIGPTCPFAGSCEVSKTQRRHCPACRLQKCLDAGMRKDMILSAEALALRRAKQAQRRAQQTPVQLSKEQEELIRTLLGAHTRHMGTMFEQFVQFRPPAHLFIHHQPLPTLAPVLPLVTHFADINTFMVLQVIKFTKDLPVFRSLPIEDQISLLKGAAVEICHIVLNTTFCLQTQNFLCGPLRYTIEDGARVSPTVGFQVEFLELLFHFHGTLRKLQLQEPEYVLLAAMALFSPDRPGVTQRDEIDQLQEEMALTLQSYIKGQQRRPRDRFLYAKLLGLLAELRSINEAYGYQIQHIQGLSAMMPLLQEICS
# [6] = biological target: T1, REV-ERBα F488A (Homo sapiens, UniProt P20393, F488A); test: two-hybrid reporter assay with mutant receptor; type: cell-based; details: F488A vs WT
# T1 construct: WT or mutant Gal4DBD- full length REV-ERBα fusion and NCoR1-VP16 fusion protein; expressed in transfected cells; host or cells: HEK293 cells with Gal4UAS luciferase reporter stably integrated
# T1 sequence (P20393 whole entry F488A, the tested form may be a part): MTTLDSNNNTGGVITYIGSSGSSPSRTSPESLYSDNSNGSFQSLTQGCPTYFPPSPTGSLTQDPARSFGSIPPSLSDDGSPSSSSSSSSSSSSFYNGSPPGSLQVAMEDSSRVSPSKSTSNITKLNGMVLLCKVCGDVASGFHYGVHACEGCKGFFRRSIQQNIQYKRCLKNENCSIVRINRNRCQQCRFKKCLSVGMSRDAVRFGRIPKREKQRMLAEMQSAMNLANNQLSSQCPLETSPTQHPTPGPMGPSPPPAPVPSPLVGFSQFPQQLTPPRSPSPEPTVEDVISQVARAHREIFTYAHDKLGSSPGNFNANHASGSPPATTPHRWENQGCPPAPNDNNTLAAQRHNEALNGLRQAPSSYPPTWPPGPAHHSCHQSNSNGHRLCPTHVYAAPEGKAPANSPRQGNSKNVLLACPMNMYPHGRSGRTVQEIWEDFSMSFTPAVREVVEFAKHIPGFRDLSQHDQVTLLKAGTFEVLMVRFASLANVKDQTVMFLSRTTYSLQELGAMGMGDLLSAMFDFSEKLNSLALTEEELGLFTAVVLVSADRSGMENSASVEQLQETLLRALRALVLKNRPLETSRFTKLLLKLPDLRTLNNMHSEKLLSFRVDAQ
# T1 sequence (O75376 whole entry partner, the tested form may be a part): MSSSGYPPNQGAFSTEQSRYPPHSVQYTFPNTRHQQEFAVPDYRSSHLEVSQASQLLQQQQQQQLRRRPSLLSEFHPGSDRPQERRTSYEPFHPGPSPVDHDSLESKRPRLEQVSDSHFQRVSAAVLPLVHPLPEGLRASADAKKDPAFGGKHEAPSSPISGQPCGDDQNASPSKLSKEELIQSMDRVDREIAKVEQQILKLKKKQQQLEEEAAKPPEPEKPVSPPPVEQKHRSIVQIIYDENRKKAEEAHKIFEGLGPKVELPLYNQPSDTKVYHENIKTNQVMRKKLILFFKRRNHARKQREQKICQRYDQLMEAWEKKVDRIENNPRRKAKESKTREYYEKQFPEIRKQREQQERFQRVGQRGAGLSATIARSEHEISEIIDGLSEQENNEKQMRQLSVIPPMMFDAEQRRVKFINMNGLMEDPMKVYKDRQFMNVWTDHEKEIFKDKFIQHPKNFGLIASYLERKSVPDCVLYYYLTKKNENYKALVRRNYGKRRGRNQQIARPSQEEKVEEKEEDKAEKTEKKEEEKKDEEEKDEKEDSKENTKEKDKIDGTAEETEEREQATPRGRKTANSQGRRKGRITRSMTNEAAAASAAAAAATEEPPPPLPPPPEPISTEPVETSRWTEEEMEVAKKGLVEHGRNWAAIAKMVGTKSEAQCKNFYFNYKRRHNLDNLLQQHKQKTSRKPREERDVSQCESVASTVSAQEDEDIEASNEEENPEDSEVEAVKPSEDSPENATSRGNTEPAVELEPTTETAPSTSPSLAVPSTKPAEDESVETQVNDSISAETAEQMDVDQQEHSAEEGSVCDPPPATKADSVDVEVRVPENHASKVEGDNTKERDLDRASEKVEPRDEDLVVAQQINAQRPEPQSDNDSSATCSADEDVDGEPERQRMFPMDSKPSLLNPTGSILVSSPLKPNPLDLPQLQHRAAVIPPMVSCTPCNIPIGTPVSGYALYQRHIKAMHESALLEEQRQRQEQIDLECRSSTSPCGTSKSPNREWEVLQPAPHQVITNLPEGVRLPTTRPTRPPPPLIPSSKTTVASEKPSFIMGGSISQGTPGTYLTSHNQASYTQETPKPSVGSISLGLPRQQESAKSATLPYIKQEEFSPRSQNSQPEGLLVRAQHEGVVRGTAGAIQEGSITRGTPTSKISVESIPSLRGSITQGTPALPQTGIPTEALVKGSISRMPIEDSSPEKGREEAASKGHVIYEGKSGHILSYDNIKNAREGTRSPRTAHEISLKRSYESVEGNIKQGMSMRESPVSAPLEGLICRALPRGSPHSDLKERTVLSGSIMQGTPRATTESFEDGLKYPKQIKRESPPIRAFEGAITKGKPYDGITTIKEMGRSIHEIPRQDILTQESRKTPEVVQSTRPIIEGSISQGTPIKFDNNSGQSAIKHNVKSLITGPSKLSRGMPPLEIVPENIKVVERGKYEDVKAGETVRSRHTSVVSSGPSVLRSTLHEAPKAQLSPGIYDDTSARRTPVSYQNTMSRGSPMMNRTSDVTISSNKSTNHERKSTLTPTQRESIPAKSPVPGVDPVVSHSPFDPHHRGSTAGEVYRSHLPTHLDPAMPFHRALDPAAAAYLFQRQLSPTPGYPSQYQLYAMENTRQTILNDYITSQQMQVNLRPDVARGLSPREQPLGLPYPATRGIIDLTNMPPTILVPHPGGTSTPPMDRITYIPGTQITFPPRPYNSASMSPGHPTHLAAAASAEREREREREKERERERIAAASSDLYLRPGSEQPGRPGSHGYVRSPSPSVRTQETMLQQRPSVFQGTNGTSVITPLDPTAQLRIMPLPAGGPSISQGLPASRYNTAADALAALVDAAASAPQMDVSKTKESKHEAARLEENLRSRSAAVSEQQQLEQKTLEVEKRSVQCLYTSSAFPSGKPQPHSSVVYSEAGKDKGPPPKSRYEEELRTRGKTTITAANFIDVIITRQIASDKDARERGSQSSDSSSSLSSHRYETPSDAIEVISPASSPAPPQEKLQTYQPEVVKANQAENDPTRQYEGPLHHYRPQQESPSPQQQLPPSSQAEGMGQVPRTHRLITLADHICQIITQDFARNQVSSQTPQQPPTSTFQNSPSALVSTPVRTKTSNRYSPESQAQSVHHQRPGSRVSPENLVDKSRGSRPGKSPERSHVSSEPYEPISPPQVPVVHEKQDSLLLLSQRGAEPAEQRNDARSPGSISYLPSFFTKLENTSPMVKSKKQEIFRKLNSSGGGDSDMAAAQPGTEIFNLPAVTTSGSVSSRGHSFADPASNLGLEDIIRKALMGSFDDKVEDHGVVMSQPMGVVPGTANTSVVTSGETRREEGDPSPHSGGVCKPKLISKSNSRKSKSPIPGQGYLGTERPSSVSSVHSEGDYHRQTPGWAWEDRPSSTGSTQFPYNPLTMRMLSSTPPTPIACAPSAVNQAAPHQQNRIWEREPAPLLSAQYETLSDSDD
# Protocol: The removal of the bulkier Phe488 sidechain may allow for the ligand binding pocket to wrap around the ligand more tightly, which may explain the higher activity of this mutant REV-ERB.
# The NCoR-Vp16 plasmid and REV-ERBα/β-FL GAL4-DBD wild-type or point mutation plasmids were incubated with the transfection agent, Lipofectamine 2000. GFP plasmid was also in the transfection mix to confirm transfection efficiency. HEK cells were plated in 10 cm dishes for western blot analysis, and HEK UAS-luc cells were plated in 96 well plates for luciferase assay analysis. Prior to cellular adherence, transfection mix was added. The cells and transfection mix were incubated at 37 °C in a humidified atmosphere of 5% CO2. The transfection incubation lasted overnight for luciferase assays and 48 h for protein isolation/western blot analysis. For luciferase assays, REV-ERB agonists were added in an 11-point serial dilution the day following overnight transfection. Cells were incubated with the compound for 24 h, prior to luciferin addition and luminescence read out.
compound,measurement,setting,value
Clc1nnc2ccc(Oc3ccccc3-c3ccccc3)nn12 [STL1267],Bmal1 expression in liver,[1],effectively suppressed Bmal1 expression and 0.9475 and 0.6115 and 0.4288 and 0.62 and 0.8061 and 0.4099
same,half-life,"[2]; male, C57Bl/6J, mouse, plasma, ip, 50 mg/kg intraperitoneal injection",~1.6 h
same,"tissue distribution (brain, plasma, liver, skeletal muscle, white adipose tissue)",[2]; 50 mg/kg i.p.,localized in all the tissues collected
same,cell viability (Fig 2a source data),"[3]; HepG2, 1uM",100.259 and 103.289 and 114.098 and 100.562 and 101.976 and 107.785 and 108.29 and 110.916
same,cell viability (Fig 2a source data),"[3]; HepG2, 2uM",94.905 and 99.6528 and 117.735 and 107.532 and 113.391 and 106.219 and 106.421 and 103.794
same,cell viability (Fig 2a source data),"[3]; HepG2, 5uM",93.8443 and 82.581 and 107.936 and 102.38 and 83.3891 and 98.2385 and 86.8237 and 96.4202
same,cell viability (Fig 2a source data),"[3]; HepG2, 10uM",88.9955 and 75.7624 and 90.8643 and 100.208 and 77.7322 and 91.3189 and 89.0965 and 88.0359
same,cell viability (Fig 2a source data),"[3]; HepG2, 20uM",83.6922 and 74.4997 and 94.7535 and 87.2782 and 90.0057 and 93.8948 and 95.4101 and 87.8338
same,effect on cell viability,"[3]; HepG2 cells, up to the maximum dose examined (20 μM)",no adverse effects on cell viability
same,potency,[4],100 to 300 nM
same,activity at CAR,[5],did not have activity
same,effect of mutation on NCoR recruitment activity,[6],impressive improvement in potency and efficacy
